Our source for the IC50 values is BindingDB's records for doi:10.1016/j.bmcl.2009.09.017 (Pfizer, 2009).

pIC50: −log10 of the molar value.

The experiment in a line: Antagonist activity at P2Y12 receptor in human platelet rich plasma assessed as inhibition of ADP-induced platelet aggregation by light transmission aggregometry.
`CCCCCOC(=O)N1CCN(C(=O)[C@H](CCC(=O)O)NC(=O)c2cc(N3CCC(CN4CCCC4)CC3)nc(-c3ccccc3)n2)CC1` [(S)-5-oxo-5-(4-(pentyloxycarbonyl)piperazin-1-yl)-4-(2-phenyl-6-(4-(pyrrolidin-1-ylmethyl)piperidin-1-yl)pyrimidine-4-carboxamido)pentanoic acid]: the pIC50 (usually the IC50 on a negative log10 scale, so that one unit is a factor of ten) is 6.25.
Consider `CCCCCOC(=O)N1CCN(C(=O)[C@H](CCC(=O)O)NC(=O)c2cc(N3CCC(C(=O)N4CCCC4)CC3)nc(-c3ccccc3)n2)CC1` [(S)-5-oxo-5-(4-(pentyloxycarbonyl)piperazin-1-yl)-4-(2-phenyl-6-(4-(pyrrolidine-1-carbonyl)piperidin-1-yl)pyrimidine-4-carboxamido)pentanoic acid], for which the pIC50 was 6.57.
As for `CCCCCOC(=O)N1CCN(C(=O)[C@H](CCC(=O)O)NC(=O)c2cc(N3CCNCC3)nc(-c3ccccc3)n2)CC1` [(S)-5-oxo-5-(4-(pentyloxycarbonyl)piperazin-1-yl)-4-(2-phenyl-6-(piperazin-1-yl)pyrimidine-4-carboxamido)pentanoic acid], the figure is 5.89; as for `CCCCCOC(=O)N1CCN(C(=O)[C@H](CCC(=O)O)NC(=O)c2cc(OCC3CCNCC3)nc(-c3ccccc3)n2)CC1` [(S)-5-oxo-5-(4-(pentyloxycarbonyl)piperazin-1-yl)-4-(2-phenyl-6-(piperidin-4-ylmethoxy)pyrimidine-4-carboxamido)pentanoic acid], 5.77.
As for `CCCCCOC(=O)N1CCN(C(=O)[C@H](CCC(=O)O)NC(=O)c2nc(-c3ccccc3)cc(N3CCC(CCN4CCCC4)CC3)n2)CC1` [(S)-5-oxo-5-(4-(pentyloxycarbonyl)piperazin-1-yl)-4-(4-phenyl-6-(4-(2-(pyrrolidin-1-yl)ethyl)piperidin-1-yl)pyrimidine-2-carboxamido)pentanoic acid], the figure is 5.77; as for `CCCCCOC(=O)N1CCN(C(=O)[C@H](CCC(=O)O)NC(=O)c2nc(-c3ccccc3)cc(N3CCC(N4CCCC4)CC3)n2)CC1` [(S)-5-oxo-5-(4-(pentyloxycarbonyl)piperazin-1-yl)-4-(4-phenyl-6-(4-(pyrrolidin-1-yl)piperidin-1-yl)pyrimidine-2-carboxamido)pentanoic acid], 5.68; as for `CCCCCOC(=O)N1CCN(C(=O)[C@H](CCC(=O)O)NC(=O)c2nc(-c3ccccc3)cc(N3CCNCC3)n2)CC1` [(S)-5-oxo-5-(4-(pentyloxycarbonyl)piperazin-1-yl)-4-(4-phenyl-6-(piperazin-1-yl)pyrimidine-2-carboxamido)pentanoic acid], 5.28.
With `CCCCCOC(=O)N1CCN(C(=O)[C@H](CCC(=O)O)NC(=O)c2nc(OCC3CCNCC3)cc(-c3ccccc3)n2)CC1` [(S)-5-oxo-5-(4-(pentyloxycarbonyl)piperazin-1-yl)-4-(4-phenyl-6-(piperidin-4-ylmethoxy)pyrimidine-2-carboxamido)pentanoic acid], the pIC50 is 5.03.
